Data reported in publication PMC4639830, “Inhibition of DYRK1A and GSK3B induces human β-cell proliferation” (Nature Communications, 2015).

Assays:
human islets = assay: Human islets treated 7 days: DNA, ATP, IEQ, insulin content, GSIS; type: cell-based; conditions: for DNA and ATP content and islet equivalent units (IEQ) compared with vehicle / insulin secretory capacity (GSIS): 6.7 μM GNF7156 or 2 μM GNF4877
Description: Human islets were evaluated for glucose stimulated insulin secretion using standard methods. Secreted insulin was monitored using an ELISA (Meso-scale Devices) and normalized to total DNA (PicoGreen, Invitrogen).
Rat or human β-cell proliferation assays were performed using dissociated primary rat or human islets. Islets were treated with the indicated compounds in the presence of EdU for 4 days before fixing and staining. EdU incorporation was measured by click reaction with AlexaFluor-647-azide (Invitrogen). For intact islet assays, primary human islets were treated for 7 or 8 days (as indicated in the legend). Rat dissociated islets were cultured in RPMI medium containing 10% FBS and human dissociated islets were cultured in PIM-S media (Prodo laboratories) with 10% human […].

[1] = tested on: β-catenin nuclear localization in primary rat islets; assay: β-Catenin nuclear translocation; type: cell-based
Description: At the end of the treatment, cells were fixed with 4% paraformaldehyde, blocked and permeabilized, and stained by standard immunofluorescence techniques for β-catenin (Cell signaling, #9562L; dilution 1:500), NFATc1 (Santa Cruz, rabbit polyclonal, SC-7294; dilution 1:200) or NFAT3c (Santa Cruz, SC-8321; dilution 1:200) and nuclear DNA was stained with DAPI (Molecular Probes; dilution 1:1,000). EdU incorporation was measured by click reaction with AlexaFluor-647-azide (Invitrogen). Plates were imaged with confocal microscope and analysed by Metamorph (Molecular Devices).

[2] = tested on: NFATc1-GFP localization in Ins1 cells; assay: NFATc1-GFP nuclear localization; type: cell-based; conditions: low glucose
Text: Figure 6 AP compounds induce β-cell proliferation through activation of the calcineurin–NFAT pathway. (a) AP compounds stimulate NFATc1-GFP nuclear localization. […] Scale bar, 50 μm. […] Scale bar, 50 μm.

InsR = molecular target: T1, InsR (Homo sapiens, UniProt P06213); assay: Kinase profiling; type: biochemical; conditions: Conc 1000 nM; read-out: Percent inhibition, InsR
T1 construct: purchased Ambit KINOMEscan
T1 sequence (P06213 28-1382): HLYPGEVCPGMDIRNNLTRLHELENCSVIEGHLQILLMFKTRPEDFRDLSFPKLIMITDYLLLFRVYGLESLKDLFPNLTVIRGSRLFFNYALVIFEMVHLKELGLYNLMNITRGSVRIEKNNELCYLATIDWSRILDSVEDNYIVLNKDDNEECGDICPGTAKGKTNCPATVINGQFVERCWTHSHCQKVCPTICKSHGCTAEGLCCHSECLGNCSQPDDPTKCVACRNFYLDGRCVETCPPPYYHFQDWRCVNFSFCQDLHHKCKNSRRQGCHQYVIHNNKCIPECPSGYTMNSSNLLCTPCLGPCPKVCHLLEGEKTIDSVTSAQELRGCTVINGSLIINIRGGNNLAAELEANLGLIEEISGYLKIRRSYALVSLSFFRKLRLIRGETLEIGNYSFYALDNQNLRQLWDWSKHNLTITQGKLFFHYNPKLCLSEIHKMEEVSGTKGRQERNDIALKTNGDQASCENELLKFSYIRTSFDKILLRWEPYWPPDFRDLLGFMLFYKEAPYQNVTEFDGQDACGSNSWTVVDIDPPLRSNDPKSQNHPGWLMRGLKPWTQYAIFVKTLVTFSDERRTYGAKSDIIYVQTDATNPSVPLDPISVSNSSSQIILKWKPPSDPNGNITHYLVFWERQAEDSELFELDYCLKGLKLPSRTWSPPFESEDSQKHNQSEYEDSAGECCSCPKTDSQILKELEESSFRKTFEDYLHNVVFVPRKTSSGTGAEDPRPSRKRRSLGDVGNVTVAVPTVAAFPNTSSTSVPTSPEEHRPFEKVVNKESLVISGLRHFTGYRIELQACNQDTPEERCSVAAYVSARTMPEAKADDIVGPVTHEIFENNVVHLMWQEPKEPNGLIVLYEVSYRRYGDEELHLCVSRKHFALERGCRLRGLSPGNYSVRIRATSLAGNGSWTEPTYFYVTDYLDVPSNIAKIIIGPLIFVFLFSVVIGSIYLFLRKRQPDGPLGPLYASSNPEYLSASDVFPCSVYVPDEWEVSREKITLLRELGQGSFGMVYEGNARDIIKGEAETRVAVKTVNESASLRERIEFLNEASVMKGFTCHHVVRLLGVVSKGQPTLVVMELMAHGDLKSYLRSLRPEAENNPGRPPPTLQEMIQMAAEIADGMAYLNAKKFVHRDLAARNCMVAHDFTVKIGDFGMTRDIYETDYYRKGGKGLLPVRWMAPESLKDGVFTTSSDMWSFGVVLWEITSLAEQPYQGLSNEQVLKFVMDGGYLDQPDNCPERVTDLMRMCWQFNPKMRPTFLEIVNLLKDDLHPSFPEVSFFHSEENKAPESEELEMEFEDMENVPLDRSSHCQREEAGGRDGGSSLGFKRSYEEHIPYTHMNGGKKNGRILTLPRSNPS
Text: (§1) ; Fig. 5a; Supplementary Table 1). We focused on Dyrk1a because other kinases inhibited by aminopyrazine compounds were not highly expressed in β-cells and because Dyrk1a was known to inhibit the NFAT pathway that was previously implicated in β-cell proliferation. We used molecular modelling to dock the aminopyrazine compounds into the published structure of Dyrk1a (protein databank accession code 2vx3.pdb; Fig. 5b).

ROCK1 = molecular target: T2, ROCK1 (Homo sapiens, UniProt Q13464); assay: Kinase profiling; type: biochemical; conditions: Conc 1000 nM; read-out: Percent inhibition, ROCK1
T2 construct: purchased Ambit (KINOMEscan)
T2 sequence (Q13464 whole entry): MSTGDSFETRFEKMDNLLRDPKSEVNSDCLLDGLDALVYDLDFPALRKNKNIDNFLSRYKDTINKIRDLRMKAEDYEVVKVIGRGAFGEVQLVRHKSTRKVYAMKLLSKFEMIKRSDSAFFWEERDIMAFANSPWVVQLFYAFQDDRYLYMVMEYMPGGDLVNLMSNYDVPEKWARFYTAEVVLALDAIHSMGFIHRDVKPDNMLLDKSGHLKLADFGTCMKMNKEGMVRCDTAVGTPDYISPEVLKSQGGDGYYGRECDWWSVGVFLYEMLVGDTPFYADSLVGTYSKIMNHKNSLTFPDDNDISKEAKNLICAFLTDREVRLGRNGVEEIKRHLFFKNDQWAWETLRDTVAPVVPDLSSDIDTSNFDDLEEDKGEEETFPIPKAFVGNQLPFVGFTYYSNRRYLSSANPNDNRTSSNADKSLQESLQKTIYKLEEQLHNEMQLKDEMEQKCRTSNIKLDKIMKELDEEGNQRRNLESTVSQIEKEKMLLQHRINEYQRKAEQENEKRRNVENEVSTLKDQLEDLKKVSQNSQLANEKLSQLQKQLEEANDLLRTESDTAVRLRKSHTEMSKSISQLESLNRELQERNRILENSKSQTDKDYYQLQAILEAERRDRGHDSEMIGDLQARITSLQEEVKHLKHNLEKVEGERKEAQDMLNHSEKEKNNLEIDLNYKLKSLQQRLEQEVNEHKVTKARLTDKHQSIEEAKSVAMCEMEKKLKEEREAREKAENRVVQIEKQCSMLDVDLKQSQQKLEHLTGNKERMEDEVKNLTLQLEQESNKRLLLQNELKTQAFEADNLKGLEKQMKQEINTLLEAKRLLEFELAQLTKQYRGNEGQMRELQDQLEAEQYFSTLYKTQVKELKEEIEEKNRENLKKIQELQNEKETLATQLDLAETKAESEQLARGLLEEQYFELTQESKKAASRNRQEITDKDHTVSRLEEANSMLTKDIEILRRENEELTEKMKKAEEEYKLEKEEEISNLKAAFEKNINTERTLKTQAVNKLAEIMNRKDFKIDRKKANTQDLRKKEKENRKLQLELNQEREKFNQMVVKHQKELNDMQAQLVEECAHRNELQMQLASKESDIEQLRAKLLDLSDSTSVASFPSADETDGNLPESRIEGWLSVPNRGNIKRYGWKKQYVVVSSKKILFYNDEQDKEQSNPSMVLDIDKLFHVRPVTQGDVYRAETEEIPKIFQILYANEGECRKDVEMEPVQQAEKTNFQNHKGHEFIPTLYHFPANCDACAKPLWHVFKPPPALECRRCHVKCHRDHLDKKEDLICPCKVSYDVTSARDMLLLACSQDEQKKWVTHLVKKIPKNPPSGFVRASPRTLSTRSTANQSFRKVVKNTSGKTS
Text: as §1

FAK2 (PTK2) = assay: Kinase profiling; type: biochemical, human
Text: as §1

diabetic RIP-DTA mice = assay: RIP-DTA mouse model of T1D; type: in vivo; conditions: 50 mg kg^−1 twice daily
Text: All animal care and experimental procedures were approved by the Institutional Animal Care and Use Committee (IACUC) of Genomics Institute of the Novartis Research Foundation and strictly followed the NIH guidelines for humane treatment of animals. The double transgenic RIP-DTA male mice (Tg(Ins2-rtTA)2Efr Tg(teto-DTA)1Gfi/J; Jackson Laboratory, Stock # 008755) were bred in-house and were maintained in a 12-h light/12-dark cycle environment with controlled temperature, humidity and ventilation. Animals were housed 3–5 mice per cage and had free access to water and standard laboratory chow. To induce pancreatic β-cell ablation and hyperglycaemia, doxycycline (200 μg ml^−1, Sigma-Aldrich) was provided in the drinking water for 5 days. Blood glucose levels were measured from tail-vein blood with a glucometer (AlphaTrak2 Monitoring System; Abbott). Experimental groups of 14 male mice each were randomized based on similar body weights (28.8±2.4 g), age (82±2 days), and blood glucose levels (428±96 mg dl^−1). Group sizes of eight animals each are sufficient to reliably detect changes in glycaemic control and β-cell mass based on historical data with reference compounds; an additional six mice were added to each group to assess total pancreatic insulin levels. […] A sub-set of animals were not given doxycycline treatment and were used as a non-diabetic vehicle–control group. All compounds were administered daily via oral gavage (4 ml kg^−1). Body weight and blood glucose were monitored every third day. An oral glucose tolerance test was performed after an overnight fast on day 12. For the insulin tolerance test, mice were fasted for 4 h before the administration of insulin (Novolin, Novo Nordisk, 0.7 U kg^−1 body weight, i.p.). Pancreatic insulin content was determined by MSD (meso-scale discovery). […] To determine β-cell proliferation and β-cell mass by morphological analyses, pancreata from the rest of animals (n=8) were rapidly dissected, fixed in formalin, sectioned and immunostained for insulin, Ki67 and BrdU on day 16. Male NSG mice, aged 8 weeks, were obtained from the Jackson Laboratory (Strain NOD.Cg-Prkdc^scid Il2rg^tm1Wjl/SzJ; Stock number 005557) and housed according to IACUC guidelines. Baseline body weight and tail-vein blood glucose measurements were recorded before diabetic induction. To obtain a diabetic state, animals were given an intraperitoneal dose of STZ (135 mg kg^−1) and blood glucose was monitored before transplant. Mice were grouped according to body weight and blood glucose level on the day of transplants (72 h after STZ treatment).
Pancreas specimens were harvested, weighed, fixed in 10% neutral buffered formalin and processed using standard paraffin processing techniques. Five micrometre serial-step sections were mounted onto Superfrost Plus slides and air-dried overnight. Samples were coded before histologic analyses resulting in blinded processing and staining. Routine hematoxylin and eosin (H&E) stains were performed on all specimens. Immunostaining was performed using the Ventana Discovery XT system. All epitope retrieval was done on the instrument using CC1 reagent. Chromogenic insulin was detected using guinea pig anti-insulin (Dako Corp A0564) at 1:3,200 and the Blue Map kit, after serum blocking and endogenous biotin blocking was performed, slides were then counterstained with Nuclear Fast Red. Fluorescent insulin and Ki67 double stains used a cocktail of the Dako anti-insulin at 1:1,600 and rabbit monoclonal Ki67 (Thermo RM9106) at 1:100, and were detected using a cocktail of Alexa Fluor 488 and 594-labelled secondary antibodies. Auto-fluorescence was quenched in red blood cells and reduced in connective tissue by treatment with 10 mM copper sulfate. Slides were counterstained with DAPI. 21 slides were collected per block. All slides were imaged on the Hamamatsu Nanozoomer and evaluated for β-cell mass and proliferation. […]

SMILES: Nc1ncc(-c2ccccc2)nc1C(=O)Nc1cnccc1N1CCC(C(=O)O)CC1 [GNF7156]
- insulin content of treated human islets (human islets; 6.7 μM GNF7156): slightly reduced insulin content
- DNA and ATP content and islet equivalent units (IEQ) compared with vehicle (human islets): increases in DNA and ATP content and an increase in islet equivalent units
- insulin secretory capacity (GSIS) (human islets): maintained insulin secretory capacity
- β-catenin nuclear translocation [1]: induced β-catenin nuclear translocation
- NFATc1-GFP nuclear localization [2]: caused marked nuclear localization of NFATc1-GFP
- inhibition at 1 µM (InsR): 24%
- inhibition at 1 µM (ROCK1): 9%
- Percent inhibition, FAK2 (PTK2) (FAK2 (PTK2); Conc 1000 nM): 92%

SMILES: CC(C)Oc1ccc(F)c(-c2cnc(N)c(C(=O)Nc3cnccc3N3CCC[C@@H](C(=O)O)C3)n2)c1 [GNF4877]
- DNA and ATP content and islet equivalent units (IEQ) compared with vehicle (human islets): increases in DNA and ATP content and an increase in islet equivalent units
- insulin secretory capacity (GSIS) (human islets): maintained insulin secretory capacity
- oral glucose tolerance vs vehicle (diabetic RIP-DTA mice; 14 days of dosing): dramatically improved glucose tolerance
- body weight, appearance or behaviour vs vehicle (diabetic RIP-DTA mice; oral): did not show any difference in body weight
- insulin tolerance vs vehicle (diabetic RIP-DTA mice; oral): without a significant difference in insulin tolerance
- non-fasting blood glucose levels (diabetic RIP-DTA mice; oral): progressive reduction of non-fasting blood glucose levels
- β-cell mass, increase vs vehicle-treated diabetic mice (diabetic RIP-DTA mice; oral, 14 days): ~1.5 fold
- insulin content, increase vs vehicle-treated diabetic mice (diabetic RIP-DTA mice; oral, whole pancreas lysate, 15 days): twofold
- NFATc1-GFP nuclear localization [2]: caused marked nuclear localization of NFATc1-GFP
- inhibition at 1 µM (InsR): 51%
- inhibition at 1 µM (ROCK1): 36%
- Percent inhibition, FAK2 (PTK2) (FAK2 (PTK2); Conc 200 nM): 9%
- Percent inhibition, FAK2 (PTK2) (FAK2 (PTK2); Conc 1000 nM): 70%
